Data taken from patent US20140206681A1, “BTK INHIBITORS” (priority 2013, published 2014).

Experiments:
HeLa cells = test: [3H]Adenosine uptake functional cellular assay; assay type: cell-based; conditions: Homo sapiens, HeLa, accumulation of [3H]adenosine into HeLa cells; compound range 10 μM to […]; read-out: Adenosine uptake inhibition IC50
Method in brief: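 Inhibition of adenosine uptake was measured in HeLa cells (ATCC CCL-2) by following accumulation of tritiated adenosine. Cells were kept overnight at 37° C. with 5% (v/v) CO2, then switched to 40 μL HBSS plus 5% (v/v) FBS. 20 μL of 500 nM [3H]adenosine was added, and uptake was counted on a Topcount NXT reader.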

[1] = biological target: T1, BTK enzyme (recombinant full-length BTK, hBTK) (Homo sapiens, UniProt Q06187); test: BTK enzyme activity assay, LANCE TR-FRET; assay type: biochemical; conditions: 50 pM hBTK, 2 μM biotin-A5-peptide, 25 μM ATP; 60 min compound & enzyme incubation; read-out: IC50 BTK activity value
T1 construct: recombinant protein from baculovirus-transfected Sf9 cells: full-length BTK, 6HIS-tag cleaved; 6HIS (cleaved yes); made in house; host or cells: baculovirus-transfected Sf9 cells
T1 sequence (Q06187 whole entry): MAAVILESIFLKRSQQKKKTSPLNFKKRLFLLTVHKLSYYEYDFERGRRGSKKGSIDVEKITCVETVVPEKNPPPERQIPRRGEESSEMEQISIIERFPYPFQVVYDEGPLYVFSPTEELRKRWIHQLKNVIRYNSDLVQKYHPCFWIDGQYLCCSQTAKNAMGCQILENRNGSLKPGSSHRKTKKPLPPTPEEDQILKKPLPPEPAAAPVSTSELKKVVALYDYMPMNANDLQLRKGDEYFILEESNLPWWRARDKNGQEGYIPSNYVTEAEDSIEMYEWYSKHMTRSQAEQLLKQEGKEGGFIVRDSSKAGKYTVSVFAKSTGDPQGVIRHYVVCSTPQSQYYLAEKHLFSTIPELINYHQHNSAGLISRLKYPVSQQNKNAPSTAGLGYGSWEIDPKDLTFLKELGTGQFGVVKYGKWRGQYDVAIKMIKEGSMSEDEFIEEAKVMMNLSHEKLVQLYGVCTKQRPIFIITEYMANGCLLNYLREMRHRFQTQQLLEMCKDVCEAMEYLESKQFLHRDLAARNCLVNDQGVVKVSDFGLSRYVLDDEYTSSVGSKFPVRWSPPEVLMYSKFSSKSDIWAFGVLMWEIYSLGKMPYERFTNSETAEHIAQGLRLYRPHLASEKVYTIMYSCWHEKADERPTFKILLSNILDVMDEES

| SMILES | IC50 (HeLa cells) | IC50 [1] |
| --- | --- | --- |
| Nc1nccn2c([C@H]3CC[C@H]4CNCC(=O)N4C3)nc(-c3ccc(C(=O)Nc4cc(C(F)(F)F)ccn4)cc3)c12 [Example 57, 4-{8-amino-3-[(7S,9aS)-4-oxooctahydro-2H-pyrido[1,2-a]pyrazin-7-yl]imidazo[1,5-a]pyrazin-1-yl}-N-[4-(trifluoromethyl)pyridin-2-yl]benzamide] | ≥ 10000 nM | 0.28 nM |
| Nc1nccn2c([C@H]3CC[C@@H]4C[C@H](O)C(=O)N4C3)nc(-c3ccc(C(=O)Nc4cc(C(F)(F)F)ccn4)cc3)c12 [Example 58, 4-{8-amino-3-[(2S,6S,8aR)-2-hydroxy-3-oxooctahydroindolizin-6-yl]imidazo[1,5-a]pyrazin-1-yl}-N-[4-(trifluoromethyl)pyridin-2-yl]benzamide] | 811 nM | 4.1 nM |
| Nc1nccn2c([C@@H]3CC[C@H]4C[C@@H](O)C(=O)N4C3)nc(-c3ccc(C(=O)Nc4cc(C(F)(F)F)ccn4)cc3)c12 [Example 59, 4-{8-amino-3-[(2R,6R,8aS)-2-hydroxy-3-oxooctahydroindolizin-6-yl]imidazo[1,5-a]pyrazin-1-yl}-N-[4-(trifluoromethyl)pyridin-2-yl]benzamide] | 398 nM | 0.13 nM |
| CNc1nccn2c([C@@H]3CC[C@H]4CCC(=O)N4C3)nc(-c3ccc(C(=O)Nc4cc(C(F)(F)F)ccn4)cc3)c12 [Example 60, 4-{8-(methylamino)-3-[(6R,8aS)-3-oxooctahydroindolizin-6-yl]imidazo[1,5-a]pyrazin-1-yl}-N-[4-(trifluoromethyl)pyridin-2-yl]benzamide] | 44.1 nM | 12.7 nM |
| CCNC(=O)Nc1nccn2c([C@@H]3CC[C@H]4CCC(=O)N4C3)nc(-c3ccc(C(=O)Nc4cc(C(F)(F)F)ccn4)cc3)c12 [Example 61, 4-{8-[(ethylcarbamoyl)amino]-3-[(6R,8aS)-3-oxooctahydroindolizin-6-yl]imidazo[1,5-a]pyrazin-1-yl}-N-[4-(trifluoromethyl)pyridin-2-yl]benzamide] | 19.2 nM | 17.7 nM |
| C[C@H]1CC(=O)N2C[C@H](c3nc(-c4ccc(C(=O)Nc5cc(C(F)(F)F)ccn5)cc4)c4c(N)nccn34)CC[C@H]12 [Example 64, 4-{8-amino-3-[(1S,6R,8aR)-1-methyl-3-oxooctahydroindolizin-6-yl]imidazo[1,5-a]pyrazin-1-yl}-N-[4-(trifluoromethyl)pyridin-2-yl]benzamide] | 114 nM | 0.77 nM |
| Nc1nccn2c([C@@H]3CC[C@H]4CN(CCO)CC(=O)N4C3)nc(-c3ccc(C(=O)Nc4cc(C(F)(F)F)ccn4)cc3)c12 [Example 66, 4-{8-amino-3-[(7R,9aS)-2-(2-hydroxyethyl)-4-oxooctahydro-2H-pyrido[1,2-a]pyrazin-7-yl]imidazo[1,5-a]pyrazin-1-yl}-N-[4-(trifluoromethyl)pyridin-2-yl]benzamide] | 206 nM | 0.13 nM |
| Nc1nccn2c([C@H]3CC[C@@H]4C[C@@H](O)C(=O)N4C3)nc(-c3ccc(C(=O)Nc4cc(C(F)(F)F)ccn4)cc3)c12 [Example 67, 4-{8-amino-3-[(2R,6S,8aR)-2-hydroxy-3-oxooctahydroindolizin-6-yl]imidazo[1,5-a]pyrazin-1-yl}-N-[4-(trifluoromethyl)pyridin-2-yl]benzamide] | 410 nM | 3.7 nM |
| Nc1nccn2c([C@@H]3CC[C@H]4C[C@H](O)C(=O)N4C3)nc(-c3ccc(C(=O)Nc4cc(C(F)(F)F)ccn4)cc3)c12 [Example 68, 4-{8-amino-3-[(2S,6R,8aS)-2-hydroxy-3-oxooctahydroindolizin-6-yl]imidazo[1,5-a]pyrazin-1-yl}-N-[4-(trifluoromethyl)pyridin-2-yl]benzamide] | 430 nM | 0.081 nM |
| CCOc1cc(C(=O)Nc2cc(C(F)(F)F)ccn2)ccc1-c1nc([C@@H]2CC[C@H]3CCC(=O)N3C2)n2ccnc(N)c12 [Example 69, 4-{8-amino-3-[(6R,8aS)-3-oxooctahydroindolizin-6-yl]imidazo[1,5-a]pyrazin-1-yl}-3-ethoxy-N-[4-(trifluoromethyl)pyridin-2-yl]benzamide] | 1440 nM | 0.16 nM |
| Nc1nccn2c([C@@H]3CC[C@H]4CCC(=O)N4C3)nc(-c3ccc(C(=O)Nc4cc(C(F)(F)F)ccn4)cc3OC(F)F)c12 [Example 71, 4-{8-amino-3-[(6R,8aS)-3-oxooctahydroindolizin-6-yl]imidazo[1,5-a]pyrazin-1-yl}-3-(difluoromethoxy)-N-[4-(trifluoromethyl)pyridin-2-yl]benzamide] | 732 nM | 0.48 nM |
| Nc1nccn2c([C@H]3CC[C@H]4C[C@@H](O)C(=O)N4C3)nc(-c3ccc(C(=O)Nc4cc(C(F)(F)F)ccn4)cc3)c12 [Example 73, 4-{8-amino-3-[(2R,6S,8aS)-2-hydroxy-3-oxooctahydroindolizin-6-yl]imidazo[1,5-a]pyrazin-1-yl}-N-[4-(trifluoromethyl)pyridin-2-yl]benzamide] | 973 nM | 0.93 nM |
| Nc1nccn2c([C@H]3CN4C(=O)OC[C@H]4CO3)nc(-c3ccc(C(=O)Nc4cc(C(F)(F)F)ccn4)cc3)c12 [Example 76, 4-(8-amino-3-((6R,8aR)-3-oxohexa hydrooxazolo[4,3-c][1,4]oxazin-6-yl)imidazo[1,5-a]pyrazin-1-yl)-N-(4-(trifluoromethyl)pyridin-2-yl)benzamide] | 682 nM | 24.9 nM |
| C[C@H]1OC[C@@H]2CC[C@@H](c3nc(-c4ccc(C(=O)Nc5cc(C(F)(F)F)ccn5)cc4)c4c(N)nccn34)CN2C1=O [Example 77, 4-(8-amino-3-((3R,7R,9aS)-3-methyl-4-oxooctahydropyrido[2,1-c][1,4]oxazin-7-yl)imidazo[1,5-a]pyrazin-1-yl)-N-(4-(trifluoromethyl)pyridin-2-yl)benzamide] | 31.2 nM | 0.13 nM |
| N#C/N=C1\CC[C@@H]2CC[C@@H](c3nc(-c4ccc(C(=O)Nc5cc(C(F)(F)F)ccn5)cc4)c4c(N)nccn34)CN12 [Example 78, 4-(8-amino-3-((6R,8aS,E)-3-(cyanoimino)octahydroindolizin-6-yl)imidazo[1,5-a]pyrazin-1-yl)-N-(4-(trifluoromethyl)pyridin-2-yl)benzamide] | 132 nM | 0.46 nM |
| COC(=O)Nc1nccn2c([C@@H]3CC[C@H]4CCC(=O)N4C3)nc(-c3ccc(C(=O)Nc4cc(C(F)(F)F)ccn4)cc3)c12 [Example 79, methyl (3-((6R,8aS)-3-oxooctahydroindolizin-6-yl)-1-(4-((4-(trifluoromethyl)pyridin-2-yl)carbamoyl)phenyl)imidazo[1,5-a]pyrazin-8-yl)carbamate] | 295 nM | 7.3 nM |
| CCN1CC(=O)N2C[C@H](c3nc(-c4ccc(C(=O)Nc5cc(C(F)(F)F)ccn5)cc4)c4c(N)nccn34)CC[C@H]2C1 [Example 80, 4-(8-amino-3-((7R,9aS)-2-ethyl-4-oxooctahydro-1H-pyrido[1,2-a]pyrazin-7-yl)imidazo[1,5-a]pyrazin-1-yl)-N-(4-(trifluoromethyl)pyridin-2-yl)benzamide] | 82.5 nM | 0.27 nM |
| CC(C)N1CC(=O)N2C[C@H](c3nc(-c4ccc(C(=O)Nc5cc(C(F)(F)F)ccn5)cc4)c4c(N)nccn34)CC[C@H]2C1 [Example 81] | 68.6 nM | 0.29 nM |
| COC(=O)CN1CC(=O)N2C[C@H](c3nc(-c4ccc(C(=O)Nc5cc(C(F)(F)F)ccn5)cc4)c4c(N)nccn34)CC[C@H]2C1 [Example 82] | 78.1 nM | 0.19 nM |
| Nc1nccn2c([C@@H]3CC[C@H]4CCCN4C3)nc(-c3ccc(C(=O)Nc4cc(C(F)(F)F)ccn4)cc3)c12 [Example 87, 4-(8-amino-3-((6R,8aS)-octahydroindolizin-6-yl)imidazo[1,5-a]pyrazin-1-yl)-N-(4-(trifluoromethyl)pyridin-2-yl)benzamide] | 75.5 nM | 0.67 nM |
| COc1cc(C(=O)Nc2cc(C(F)(F)F)ccn2)ccc1-c1nc([C@@H]2CC[C@H]3[C@@H](C)OC(=O)N3C2)n2ccnc(N)c12 [Example 89, 4-(8-amino-3-((1R,6R,8aS)-1-methyl-3-oxohexahydro-1H-oxazolo[3,4-a]pyridin-6-yl)imidazo[1,5-a]pyrazin-1-yl)-3-methoxy-N-(4-(trifluoromethyl)pyridin-2-yl)benzamide] | 490 nM | 0.13 nM |
| COc1cc(C(=O)Nc2cc(C(F)(F)F)ccn2)ccc1-c1nc([C@@H]2CC[C@@H]3N(C2)C(=O)OC3(C)C)n2ccnc(N)c12 [Example 90, 4-(8-amino-3-((6R,8aS)-1,1-dimethyl-3-oxohexahydro-1H-oxazolo[3,4-a]pyridin-6-yl)imidazo[1,5-a]pyrazin-1-yl)-3-methoxy-N-(4-(trifluoromethyl)pyridin-2-yl)benzamide] | 373 nM | 0.18 nM |
| COc1cc(C(=O)Nc2cc(C(F)(F)F)ccn2)ccc1-c1nc([C@H]2CN3C(=O)CC[C@@H]3CO2)n2ccnc(N)c12 [Example 91, 4-(8-amino-3-((3R,8aR)-6-oxohexahydro-1H-pyrrolo[2,1-c][1,4]oxazin-3-yl)imidazo[1,5-a]pyrazin-1-yl)-3-methoxy-N-(4-(trifluoromethyl)pyridin-2-yl)benzamide] | 639 nM | 0.52 nM |
| Nc1nccn2c([C@@H]3CC[C@H]4CCOC(=O)N4C3)nc(-c3ccc(C(=O)Nc4cc(C(F)(F)F)ccn4)cc3)c12 [Example 92, 4-{8-amino-3-[(4aS,7R)-1-oxohexahydro-3H-pyrido[1,2-c][1,3]oxazin-7-yl]imidazo[1,5-a]pyrazin-1-yl}-N-[4-(trifluoromethyl)pyridin-2-yl]benzamide] | 64.6 nM | 0.075 nM |
